The values below come from ChEMBL document CHEMBL3112413, “Novel coumarin-dihydropyrazole thio-ethanone derivatives: design, synthesis and anticancer activity” (Eur J Med Chem, 2014).

In one assay the test system is HepG2. In words: Cytotoxicity against human HepG2 cells after 48 hrs by MTT assay. Particulars: HepG2, 48 h. It counts as functional, cell-based.
Another assay concerns Bcap37. Nature of the assay: Cytotoxicity against human Bcap37 cells after 48 hrs by MTT assay. It counts as functional, cell-based. The conditions noted are these: Bcap37, 48 h.
Assay [1] in a line: Cytotoxicity against human SGC7901 cells after 48 hrs by MTT assay. Type of assay: functional, cell-based. Particulars: SGC-7901, 48 h. In general terms: Tetrazolium assays rely on reduction of a dye to a coloured formazan, in cell work by metabolically active cells.
Assay [2] deals with MGC-803. Nature of the assay: Cytotoxicity against human MGC803 cells after 48 hrs by MTT assay. Type of assay: functional, cell-based. The conditions noted are these: MGC-803, 48 h.
Assay [3] deals with DNA polymerase I, thermostable (Thermus aquaticus) (UniProt P19821). In words: Inhibition of Thermus aquaticus Taq polymerase at IC50 for telomerase inhibition after 15 mins using ethidium bromide staining by 2% agarose gel electrophoresis analysis.
The target of assay [4] is Telomerase reverse transcriptase (Homo sapiens, UniProt O14746). Nature of the assay: Inhibition of telomerase in human MGC803 cell extracts after 24 hrs by TRAP-PCR-ELISA. Further details: species or system MGC-803.
Assay [5] relates to MGC-803. In words: Cell cycle arrest in human MGC803 cells assessed as accumulation at G0/G1 phase at […] uM after 48 hrs using propidium iodide staining after 48 hrs by flow cytometer relative to control. It counts as functional. (In flow cytometry, cells or beads pass a laser one at a time.)
In assay [6] the test system is MGC-803. In words: Cell cycle arrest in human MGC803 cells assessed as accumulation at S phase at […] uM after 48 hrs using propidium iodide staining after 48 hrs by flow cytometer relative to control. Type of assay: functional.
The subject of assay [7] is MGC-803. Nature of the assay: Cell cycle arrest in human MGC803 cells assessed as accumulation at G2/M phase at […] uM after 48 hrs using propidium iodide staining after 48 hrs by flow cytometer relative to control. Type of assay: functional.
For assay [8], the system named is MGC-803. Nature of the assay: Cell cycle arrest in human MGC803 cells assessed as accumulation at S phase at 25 uM after 48 hrs using propidium iodide staining after 48 hrs by flow cytometer relative to control. Type of assay: functional.
The subject of assay [9] is MGC-803. Nature of the assay: Cell cycle arrest in human MGC803 cells assessed as accumulation at G0/G1 phase at 25 uM after 48 hrs using propidium iodide staining after 48 hrs by flow cytometer relative to control. It counts as functional.
In assay [10] the test system is MGC-803. In words: Cell cycle arrest in human MGC803 cells assessed as accumulation at G2/M phase at 25 uM after 48 hrs using propidium iodide staining after 48 hrs by flow cytometer relative to control. Type of assay: functional.
Assay [11] deals with MGC-803. Nature of the assay: Cell cycle arrest in human MGC803 cells at 0.92 uM after 48 hrs using propidium iodide staining after 48 hrs by flow cytometer relative to control. It counts as functional.

The source made the active and inactive calls. The rule behind the calls is not given here.

Sequence of Telomerase reverse transcriptase (O14746 whole entry): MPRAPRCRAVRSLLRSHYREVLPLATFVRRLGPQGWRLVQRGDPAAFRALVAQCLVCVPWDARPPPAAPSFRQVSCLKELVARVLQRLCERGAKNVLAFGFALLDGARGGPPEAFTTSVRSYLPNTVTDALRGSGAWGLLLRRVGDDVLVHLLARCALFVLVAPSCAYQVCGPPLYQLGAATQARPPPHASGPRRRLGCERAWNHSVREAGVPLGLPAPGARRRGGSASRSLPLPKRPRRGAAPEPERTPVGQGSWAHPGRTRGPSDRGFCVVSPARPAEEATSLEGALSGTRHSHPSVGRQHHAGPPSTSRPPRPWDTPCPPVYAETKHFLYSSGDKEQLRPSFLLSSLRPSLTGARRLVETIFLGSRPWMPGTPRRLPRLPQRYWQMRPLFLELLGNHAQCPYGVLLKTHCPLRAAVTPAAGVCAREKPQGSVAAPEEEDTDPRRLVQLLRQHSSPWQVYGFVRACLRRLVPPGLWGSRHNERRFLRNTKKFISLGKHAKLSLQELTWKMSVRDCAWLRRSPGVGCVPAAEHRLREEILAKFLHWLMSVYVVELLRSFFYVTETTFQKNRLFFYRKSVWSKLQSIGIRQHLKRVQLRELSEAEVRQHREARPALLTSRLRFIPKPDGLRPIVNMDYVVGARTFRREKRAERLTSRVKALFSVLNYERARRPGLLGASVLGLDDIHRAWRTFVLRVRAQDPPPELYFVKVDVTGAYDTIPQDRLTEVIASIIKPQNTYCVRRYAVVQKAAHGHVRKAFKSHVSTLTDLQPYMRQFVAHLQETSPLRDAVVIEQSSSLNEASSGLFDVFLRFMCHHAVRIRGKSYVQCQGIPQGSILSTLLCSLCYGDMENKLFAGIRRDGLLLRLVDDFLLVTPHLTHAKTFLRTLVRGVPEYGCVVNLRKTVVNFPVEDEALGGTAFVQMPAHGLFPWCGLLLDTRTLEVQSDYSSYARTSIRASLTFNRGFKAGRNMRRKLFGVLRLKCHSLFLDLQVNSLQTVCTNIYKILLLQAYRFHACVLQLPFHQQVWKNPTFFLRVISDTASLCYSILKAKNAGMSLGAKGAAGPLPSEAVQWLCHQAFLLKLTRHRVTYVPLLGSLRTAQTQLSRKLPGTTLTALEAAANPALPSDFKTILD
Sequence of DNA polymerase I, thermostable (Thermus aquaticus) (P19821 whole entry): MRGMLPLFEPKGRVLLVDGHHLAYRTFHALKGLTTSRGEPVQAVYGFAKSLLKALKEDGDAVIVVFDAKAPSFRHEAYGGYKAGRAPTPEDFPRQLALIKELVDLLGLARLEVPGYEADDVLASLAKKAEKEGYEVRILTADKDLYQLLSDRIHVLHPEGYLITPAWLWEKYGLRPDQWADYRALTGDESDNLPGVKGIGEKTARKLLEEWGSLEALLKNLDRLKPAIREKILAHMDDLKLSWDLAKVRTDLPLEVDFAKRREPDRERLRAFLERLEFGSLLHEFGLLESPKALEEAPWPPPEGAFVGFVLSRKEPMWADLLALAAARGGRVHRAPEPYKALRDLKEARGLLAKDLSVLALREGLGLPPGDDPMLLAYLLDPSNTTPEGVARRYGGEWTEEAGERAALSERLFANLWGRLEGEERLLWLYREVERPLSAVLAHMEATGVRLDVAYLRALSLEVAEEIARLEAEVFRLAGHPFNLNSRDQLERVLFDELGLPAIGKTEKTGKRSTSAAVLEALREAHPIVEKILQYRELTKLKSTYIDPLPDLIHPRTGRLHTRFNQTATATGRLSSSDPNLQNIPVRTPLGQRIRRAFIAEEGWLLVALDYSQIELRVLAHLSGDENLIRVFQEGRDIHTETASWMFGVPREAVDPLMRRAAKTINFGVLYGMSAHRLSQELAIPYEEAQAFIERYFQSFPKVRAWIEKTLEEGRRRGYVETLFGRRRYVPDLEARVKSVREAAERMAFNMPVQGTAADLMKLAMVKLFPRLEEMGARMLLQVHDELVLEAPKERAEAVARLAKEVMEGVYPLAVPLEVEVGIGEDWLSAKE

For orientation: IC50 means the concentration at which inhibition is half-maximal. As for `O=C(CSc1ncccn1)N1N=C(c2cc3ccccc3oc2=O)C[C@@H]1c1ccc(C(F)(F)F)cc1`, the IC50 with HepG2 worked out at 4.75 µM; in the assay with Bcap37 it was 3.77 µM; in assay [1], 4.39 µM; with MGC-803 [2], 2.89 µM.
With `O=C(CSc1ncccn1)N1N=C(c2cc3ccccc3oc2=O)C[C@@H]1c1ccccc1C(F)(F)F`, the concentration for half-maximal inhibition (IC50) was 6.54 µM in the assay with HepG2; 4.09 µM with Bcap37; 4.97 µM in assay [1]; 8.89 µM in [4]; 4 µM with MGC-803 [2]. The inhibition result in assay [3] was “inactive”.
Consider `CCCCSCC(=O)N1N=C(c2cc3ccccc3oc2=O)C[C@@H]1c1ccccc1C(F)(F)F`, for which the IC50 amounted to 5.01 µM in the assay with HepG2; 9.73 µM in the assay with Bcap37; 4.42 µM in assay [1]; 2 µM in [4]; 3.14 µM in the assay on MGC-803 [2]. In addition, the inhibition result in assay [3] is “inactive”.
For the molecule `CC1=NN(C(=O)CSc2ccccc2)[C@@H](c2cc(Br)cc(Br)c2O)C1`, the IC50 in the assay with HepG2 amounted to 10.3 µM; in the assay with Bcap37, 13.1 µM; in [1], 24.1 µM; in the assay with MGC-803 [2], 12.7 µM.
As to `O=C(CSc1ccc(Br)cc1)N1N=C(c2cc3ccccc3oc2=O)C[C@@H]1c1ccc(C(F)(F)F)cc1`, the IC50 in the assay with HepG2 turned out to be 12.7 µM; in the assay with Bcap37 it was 7.99 µM; in assay [1] it was 12.1 µM; in assay [4] it was 25.1 µM; in the assay with MGC-803 [2], 10.8 µM. In [3], the inhibition entry is “inactive”.
For the molecule `O=C(CSc1ccc([N+](=O)[O-])cc1)N1N=C(c2cc3ccccc3oc2=O)C[C@@H]1c1ccccc1C(F)(F)F`, the IC50 was determined as 7.7 µM in the assay on HepG2, 10.8 µM in the assay on Bcap37, 9.77 µM in assay [1] and 7.58 µM with MGC-803 [2].
Regarding `CC1=NN(C(=O)CSc2nc3ccccc3s2)[C@@H](c2cc(Br)cc(Br)c2O)C1`, the IC50 in the assay with HepG2 came to 8.7 µM; with Bcap37, 9.7 µM; in assay [1], 12.3 µM; in assay [4], 4.65 µM; in the assay on MGC-803 [2], 7.8 µM.
`C/C(=C\C(=O)Nc1ccccc1C(=O)O)c1ccc2ccccc2c1`: the IC50 in [4] stood at 0.28 µM.
Consider `CCCSCC(=O)N1N=C(C)C[C@@H]1c1cc(Br)cc(Br)c1O`, for which the concentration for half-maximal inhibition (IC50) was 4 µM in the assay with HepG2; 3.24 µM in the assay with Bcap37; 2.3 µM in [1]; 1.04 µM in [4]; 2.97 µM in the assay with MGC-803 [2]. Further, the inhibition entry in assay [3] was “inactive”. Besides, the Activity in the assay with MGC-803 [5] is on record as 47.2%; with MGC-803 [6], 30.1%; in the assay with MGC-803 [7], 25.2%.
`O=C(CSCc1ccco1)N1N=C(c2cc3ccccc3oc2=O)C[C@@H]1c1ccc(C(F)(F)F)cc1`: the IC50 with HepG2 was determined as 11.2 µM; in the assay with Bcap37 it was 12 µM; in assay [1] it was 9.74 µM; in the assay with MGC-803 [2], 15.2 µM.
For the molecule `O=c1[nH]cc(F)c(=O)[nH]1` [FLUOROURACIL], the IC50 was 4.35 µM in the assay with HepG2, 5.58 µM in the assay with Bcap37, 7.37 µM in [1] and 3.68 µM in the assay with MGC-803 [2].
Turning to `O=c1cc(N2CCOCC2)oc2c(-c3ccccc3)cccc12` [LY-294002], the Activity in the assay with MGC-803 [8] stood at 27.1%; with MGC-803 [9] it was 50.5%; with MGC-803 [10], 22.4%.
On to `CCCCSCC(=O)N1N=C(c2cc3ccccc3oc2=O)C[C@@H]1c1ccc(C(F)(F)F)cc1`, for which the IC50 in the assay on HepG2 amounted to 8.68 µM; in the assay with Bcap37, 3.55 µM; in assay [1] it was 2.91 µM; in [4], 0.92 µM; with MGC-803 [2], 2.35 µM. Moreover, the inhibition result in assay [3] was “inactive”. The same molecule had an Activity in the assay on MGC-803 [11] of 66%.
Turning to `CCCCSCC(=O)N1N=C(c2cc3ccccc3oc2=O)C[C@@H]1c1ccccc1`, the IC50 worked out at 6.64 µM with HepG2, 9.7 µM in the assay with Bcap37, 7.3 µM in assay [1] and 12.8 µM in the assay with MGC-803 [2].
For `O=C(CSc1ccc(Br)cc1)N1N=C(c2cc3ccccc3oc2=O)C[C@@H]1c1ccccc1` the same measures were 14.5 µM, 13 µM, 14.3 µM and 16.8 µM.
For `CC1=NN(C(=O)CSc2ccc(Br)cc2)[C@@H](c2cc(Br)cc(Br)c2O)C1` the same measures were 6.87 µM, 3.2 µM, 8.21 µM and 12.8 µM.
The matching figures for `CC1=NN(C(=O)CSc2ccccn2)[C@@H](c2cc(Br)cc(Br)c2O)C1`: 24.7 µM, 16.7 µM, 10.3 µM and 12.3 µM.
As to `O=C(CSc1ccc([N+](=O)[O-])cc1)N1N=C(c2cc3ccccc3oc2=O)C[C@@H]1c1ccc(C(F)(F)F)cc1`, the IC50 was 7.76 µM in the assay on HepG2, 16.5 µM in the assay on Bcap37, 8.51 µM in [1] and 10.2 µM in the assay on MGC-803 [2].
In turn, `CC[n+]1c(-c2ccccc2)c2cc(N)ccc2c2ccc(N)cc21` [HOMIDIUM BROMIDE] yielded an IC50 in assay [4] of 2.1 µM.
Take `O=C(CSCc1ccco1)N1N=C(c2cc3ccccc3oc2=O)C[C@@H]1c1ccccc1C(F)(F)F`: the IC50 in the assay with HepG2 is 18 µM; in the assay on Bcap37, 10.3 µM; in assay [1], 10.2 µM; in the assay on MGC-803 [2], 15.7 µM.
Consider `O=C(CSc1ccccc1)N1N=C(c2cc3ccccc3oc2=O)C[C@@H]1c1ccccc1`, for which the IC50 came out at 16.3 µM in the assay with HepG2, 14.8 µM with Bcap37, 20.3 µM in [1] and 22.8 µM in the assay on MGC-803 [2].
The matching figures for `O=C(CSc1ccc(Br)cc1)N1N=C(c2cc3ccccc3oc2=O)C[C@@H]1c1ccccc1C(F)(F)F`: 17.9 µM, 10.3 µM, 14.7 µM and 21.3 µM.
Turning to `COC(=O)CSCC(=O)N1N=C(C)C[C@@H]1c1cc(Br)cc(Br)c1O`, the IC50 in the assay on HepG2 came out at 2.95 µM; in the assay with Bcap37 it was 3.7 µM; in assay [1], 3.3 µM; in assay [4] it was 1.19 µM; in the assay with MGC-803 [2], 2.27 µM. The inhibition result in assay [3] was “inactive”.
